Where a name gives a salt, the structure may show the parent alone.

The test system of the assay is brain disorders of patients from drug detoxification. Nature of the assay: Biperiden Hcl given to patients after block-out of poisoning pathway (drug detoxification) treatment. The assay is classed as in vivo. Particulars: dose 10 mg/ml. As to the method:
A Biperiden Hcl 10 medicine of the disclosure is a cure of Parkinson's disease and can reduce effect of acetylcholine of Extrapyramidal Symptoms (EPS) on it to further decrease excitement of central nervous. […] With reference to FIG. 1, a Biperiden Hcl 10 medicine is applied after patients are treated with block-out of poisoning pathway, wherein poisoning pathway treatment 20 can adapt intravenous drip prescription 30 disclosed in U.S. utility patent application Ser. No.10/004,781 owned by the inventor(s) and purpose treatment thereof, providing the intravenous drip prescription 30 to patients. The intravenous drip prescription 30 comprises a plurality of ingredients consisting of Cerebrolysin, Piracetam, Cimetidine, Scopolamine Butylbromide, Nefopam, B. C Complex, Vitamin B1, Ascorbic acid, Ketorolac, Guronsan, Hyoscien Butylbromide, and Sukerin. After a patient is dealt with poisoning pathway treatment 20, a dose (10 mg/ml) of Biperiden Hcl 10 is provided to the patient to sooth brain disorder of the patient from the poisoning pathway treatment 20 of the patient, capable of rapidly recovering consciousness and normal physiological state.

Take `OC(CCN1CCCCC1)(c1ccccc1)C1CC2C=CC1C2` (stereo not shown) [Biperiden Hcl]: the “soothing brain disorders of patients and recovering consciousness and normal physiological state” value was “excellent effect of soothing brain disorders of patients and recovering consciousness and normal physiological state”.
